Laboratory results: ChEMBL document CHEMBL1137237, “Identification of isothiazole-4-carboxamidines derivatives as a novel class of allosteric MEK1 inhibitors” (Bioorg Med Chem Lett, 2006)

Tests used:
[1] = AUC following oral dose; format: ADME, organism-based; conditions: rat, plasma
[2] = AUC following intravenous dose; format: ADME, organism-based; conditions: rat, plasma
[3] = target: T1, Receptor-type tyrosine-protein kinase FLT3 (Homo sapiens, UniProt P36888); assay: Inhibition of Flt-3
T1 sequence (P36888 whole entry): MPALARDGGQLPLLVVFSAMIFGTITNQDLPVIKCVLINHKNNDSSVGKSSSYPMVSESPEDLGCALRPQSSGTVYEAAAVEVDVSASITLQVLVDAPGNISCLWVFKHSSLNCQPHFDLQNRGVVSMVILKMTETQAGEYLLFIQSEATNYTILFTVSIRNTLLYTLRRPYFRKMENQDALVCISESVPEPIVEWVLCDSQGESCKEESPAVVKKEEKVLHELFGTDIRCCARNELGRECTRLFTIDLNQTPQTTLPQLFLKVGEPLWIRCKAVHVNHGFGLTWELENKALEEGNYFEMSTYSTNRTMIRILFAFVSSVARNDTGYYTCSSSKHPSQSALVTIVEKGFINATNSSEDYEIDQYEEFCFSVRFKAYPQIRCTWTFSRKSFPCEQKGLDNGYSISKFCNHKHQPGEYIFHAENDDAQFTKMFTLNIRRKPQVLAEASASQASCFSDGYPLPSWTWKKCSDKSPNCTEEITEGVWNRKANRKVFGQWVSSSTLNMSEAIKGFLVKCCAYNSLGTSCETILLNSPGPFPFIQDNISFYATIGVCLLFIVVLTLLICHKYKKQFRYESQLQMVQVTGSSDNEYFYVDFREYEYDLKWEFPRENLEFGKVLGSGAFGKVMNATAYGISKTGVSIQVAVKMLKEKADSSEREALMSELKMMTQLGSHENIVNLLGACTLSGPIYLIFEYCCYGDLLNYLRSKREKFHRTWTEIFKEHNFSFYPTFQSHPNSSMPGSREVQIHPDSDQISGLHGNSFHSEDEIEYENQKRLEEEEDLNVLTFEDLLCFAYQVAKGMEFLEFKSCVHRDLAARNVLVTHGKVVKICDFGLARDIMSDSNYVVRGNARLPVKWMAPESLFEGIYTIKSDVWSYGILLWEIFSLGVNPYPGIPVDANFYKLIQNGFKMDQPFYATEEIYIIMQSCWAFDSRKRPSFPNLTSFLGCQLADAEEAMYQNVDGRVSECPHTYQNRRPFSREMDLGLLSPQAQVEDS

Aurora kinase A = target: T2, Aurora kinase A (Homo sapiens, UniProt O14965); assay: Inhibition of Aurora
T2 sequence (O14965 whole entry): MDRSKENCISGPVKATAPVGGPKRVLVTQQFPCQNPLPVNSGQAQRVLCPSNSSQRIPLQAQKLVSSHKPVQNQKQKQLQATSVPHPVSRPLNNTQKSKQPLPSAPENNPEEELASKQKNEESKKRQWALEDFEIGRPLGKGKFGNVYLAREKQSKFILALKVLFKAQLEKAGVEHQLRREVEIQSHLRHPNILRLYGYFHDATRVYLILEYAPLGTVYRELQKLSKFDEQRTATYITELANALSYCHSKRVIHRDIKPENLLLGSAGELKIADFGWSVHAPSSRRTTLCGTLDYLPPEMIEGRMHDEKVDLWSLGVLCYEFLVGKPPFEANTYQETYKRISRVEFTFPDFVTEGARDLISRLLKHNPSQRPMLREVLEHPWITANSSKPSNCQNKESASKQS

[4] = target: T3, Tyrosine-protein kinase receptor UFO (Homo sapiens, UniProt P30530); assay: Inhibition of Axl
T3 sequence (P30530 whole entry): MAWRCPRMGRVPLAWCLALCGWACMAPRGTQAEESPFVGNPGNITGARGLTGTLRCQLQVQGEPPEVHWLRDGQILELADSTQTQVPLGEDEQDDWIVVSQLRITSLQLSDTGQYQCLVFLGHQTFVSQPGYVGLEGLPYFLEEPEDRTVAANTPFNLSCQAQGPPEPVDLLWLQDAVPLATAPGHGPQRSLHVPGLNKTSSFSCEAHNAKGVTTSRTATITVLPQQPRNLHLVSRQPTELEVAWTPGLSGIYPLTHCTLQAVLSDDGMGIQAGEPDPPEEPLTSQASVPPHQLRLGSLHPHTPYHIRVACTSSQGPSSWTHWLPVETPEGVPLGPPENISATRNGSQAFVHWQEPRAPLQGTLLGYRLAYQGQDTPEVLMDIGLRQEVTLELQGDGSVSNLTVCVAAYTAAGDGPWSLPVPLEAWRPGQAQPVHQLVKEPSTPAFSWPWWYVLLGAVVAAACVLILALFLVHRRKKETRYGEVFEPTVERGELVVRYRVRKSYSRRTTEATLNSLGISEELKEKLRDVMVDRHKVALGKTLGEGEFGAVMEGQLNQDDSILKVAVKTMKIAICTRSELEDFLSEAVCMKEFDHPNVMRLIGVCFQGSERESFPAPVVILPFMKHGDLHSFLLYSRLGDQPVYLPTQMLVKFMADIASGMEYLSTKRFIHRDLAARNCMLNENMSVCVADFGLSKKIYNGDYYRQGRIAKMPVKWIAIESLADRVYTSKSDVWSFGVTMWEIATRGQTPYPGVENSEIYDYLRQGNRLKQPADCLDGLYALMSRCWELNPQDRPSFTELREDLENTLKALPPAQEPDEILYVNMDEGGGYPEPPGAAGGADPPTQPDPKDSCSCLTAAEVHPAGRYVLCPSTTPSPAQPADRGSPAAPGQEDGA

[5] = target: T4, Dual specificity mitogen-activated protein kinase kinase 1 (Homo sapiens, UniProt Q02750); assay: Inhibition of MEK-1
[6] = target: Ribosomal protein S6 kinase (P70S6K) (Homo sapiens, UniProt P23443+Q9UBS0); assay: Inhibition of p70 S6 kinase; format: protein-complex assay
[7] = target: Serine/threonine-protein kinase Chk2 (Homo sapiens, UniProt O96017); assay: Inhibition of CHK2
[8] = target: T4, Dual specificity mitogen-activated protein kinase kinase 1; assay: Inhibitory activity against MEK-1; format: functional
[9] = target: T4, Dual specificity mitogen-activated protein kinase kinase 1; assay: Inhibition of MEK-1 activity

T4 sequence (Q02750 whole entry): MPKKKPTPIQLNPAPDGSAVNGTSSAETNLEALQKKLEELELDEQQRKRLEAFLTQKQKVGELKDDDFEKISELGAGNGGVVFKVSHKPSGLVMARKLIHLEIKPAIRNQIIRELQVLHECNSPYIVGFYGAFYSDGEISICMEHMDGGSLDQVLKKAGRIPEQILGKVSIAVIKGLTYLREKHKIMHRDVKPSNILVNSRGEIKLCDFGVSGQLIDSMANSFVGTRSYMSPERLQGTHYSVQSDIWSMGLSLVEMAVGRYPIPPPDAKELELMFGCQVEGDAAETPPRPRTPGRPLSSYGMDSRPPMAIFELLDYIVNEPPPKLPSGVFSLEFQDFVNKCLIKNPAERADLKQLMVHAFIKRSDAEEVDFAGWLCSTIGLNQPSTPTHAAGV
Sequence of Serine/threonine-protein kinase Chk2 (O96017 whole entry): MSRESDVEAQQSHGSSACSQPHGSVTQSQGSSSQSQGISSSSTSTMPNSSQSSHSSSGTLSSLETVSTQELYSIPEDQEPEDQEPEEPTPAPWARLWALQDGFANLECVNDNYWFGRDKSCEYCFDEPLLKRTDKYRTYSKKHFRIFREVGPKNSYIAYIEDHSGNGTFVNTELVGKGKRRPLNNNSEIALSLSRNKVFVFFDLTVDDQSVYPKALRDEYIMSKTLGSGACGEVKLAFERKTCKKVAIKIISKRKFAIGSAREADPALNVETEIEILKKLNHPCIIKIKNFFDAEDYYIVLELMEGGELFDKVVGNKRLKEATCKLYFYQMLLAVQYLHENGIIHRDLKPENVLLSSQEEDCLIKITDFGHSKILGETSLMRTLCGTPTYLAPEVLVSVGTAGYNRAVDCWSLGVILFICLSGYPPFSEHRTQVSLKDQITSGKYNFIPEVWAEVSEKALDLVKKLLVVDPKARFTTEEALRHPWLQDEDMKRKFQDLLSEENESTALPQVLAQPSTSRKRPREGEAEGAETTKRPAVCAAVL
Sequence of Ribosomal protein S6 kinase (P70S6K) (Q9UBS0 whole entry): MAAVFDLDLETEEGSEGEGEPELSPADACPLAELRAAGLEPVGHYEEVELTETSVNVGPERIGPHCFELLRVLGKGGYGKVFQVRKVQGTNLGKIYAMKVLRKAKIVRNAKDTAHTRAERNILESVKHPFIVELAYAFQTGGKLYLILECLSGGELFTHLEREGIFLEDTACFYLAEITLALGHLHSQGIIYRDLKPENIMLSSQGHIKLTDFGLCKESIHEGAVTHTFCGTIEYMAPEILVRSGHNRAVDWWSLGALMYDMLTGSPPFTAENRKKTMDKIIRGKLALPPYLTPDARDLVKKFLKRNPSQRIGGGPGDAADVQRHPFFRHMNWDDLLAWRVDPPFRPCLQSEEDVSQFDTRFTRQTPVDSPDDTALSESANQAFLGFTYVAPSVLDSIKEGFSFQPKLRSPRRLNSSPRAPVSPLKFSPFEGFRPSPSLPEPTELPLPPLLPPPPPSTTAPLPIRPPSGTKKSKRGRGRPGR
Sequence of Ribosomal protein S6 kinase (P70S6K) (P23443 whole entry): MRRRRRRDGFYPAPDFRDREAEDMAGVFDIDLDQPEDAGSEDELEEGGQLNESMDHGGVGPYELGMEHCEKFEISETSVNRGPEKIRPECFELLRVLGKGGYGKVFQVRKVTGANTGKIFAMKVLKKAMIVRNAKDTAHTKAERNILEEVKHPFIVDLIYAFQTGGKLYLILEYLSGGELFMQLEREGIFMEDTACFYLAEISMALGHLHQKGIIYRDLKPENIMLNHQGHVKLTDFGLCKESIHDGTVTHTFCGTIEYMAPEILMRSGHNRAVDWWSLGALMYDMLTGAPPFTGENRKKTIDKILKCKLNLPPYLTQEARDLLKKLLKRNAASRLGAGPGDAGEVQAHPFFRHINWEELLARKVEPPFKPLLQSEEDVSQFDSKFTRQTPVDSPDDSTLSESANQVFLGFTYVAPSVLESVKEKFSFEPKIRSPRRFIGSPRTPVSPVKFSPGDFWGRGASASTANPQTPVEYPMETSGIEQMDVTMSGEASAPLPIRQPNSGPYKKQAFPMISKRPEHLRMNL

AUC [1] | SMILES | also measured
5260 ng·h/mL | CC(CO)/N=C(\N)c1c(O)nsc1Nc1ccc(Oc2cccc(Cl)c2Cl)cc1 (stereo not given) | 
900 ng·h/mL | CC(CO)NC(=N)c1c(O)nsc1Nc1ccc(Oc2cc(F)ccc2Cl)cc1 (stereo not given) | 
617 ng·h/mL | N=C(NCCN1CCOCC1)c1c(O)nsc1Nc1ccc(Oc2cc(Cl)ccc2Cl)cc1 | 
9430 ng·h/mL | CC(CO)NC(=N)c1c(O)nsc1Nc1ccc(Oc2cccc(F)c2F)cc1 (stereo not given) | 
4280 ng·h/mL | CC(CO)NC(=N)c1c(O)nsc1Nc1ccc(Oc2cccc(Cl)c2Cl)c(Cl)c1 (stereo not given) | 
6860 ng·h/mL | NC(=NCCCN1CCOCC1)c1c(Nc2ccc(Oc3cc(Cl)ccc3Cl)cc2)s[nH]c1=O | 
11700 ng·h/mL | CC(CO)NC(=N)c1c(O)nsc1Nc1ccc(Oc2cc(Cl)cc(Cl)c2)cc1 (stereo not given) | 
16500 ng·h/mL | CC(CO)/N=C(\N)c1c(O)nsc1Nc1ccc(Oc2ccc(F)cc2F)cc1 (stereo not given) | 
26200 ng·h/mL | CC(CO)NC(=N)c1c(O)nsc1Nc1ccc(Oc2ccc(Cl)cc2Cl)cc1 (stereo not given) | 
2880 ng·h/mL | N/C(=N\N1CCOCC1)c1c(O)nsc1Nc1ccc(Oc2cc(Cl)ccc2Cl)cc1 | 
262 ng·h/mL | CN1CCN(CC/N=C(\N)c2c(O)nsc2Nc2ccc(Oc3cc(Cl)ccc3Cl)cc2)CC1 | 
5140 ng·h/mL | CC(CO)/N=C(\N)c1c(O)nsc1Nc1ccc(Oc2cc(F)cc(F)c2)cc1 (stereo not given) | 
6260 ng·h/mL | CC(CO)/N=C(\N)c1c(O)nsc1Nc1ccc(Oc2ccc(F)cc2Cl)cc1 (stereo not given) | 
20300 ng·h/mL | CC(CO)/N=C(\N)c1c(O)nsc1Nc1ccc(Oc2cc(F)cc(F)c2Cl)cc1 (stereo not given) | 
47400 ng·h/mL | CC(CO)N=C(N)c1c(Nc2ccc(Oc3cc(Cl)ccc3Cl)cc2)s[nH]c1=O (stereo not given) | 
22400 ng·h/mL | CC(C)C(CO)N=C(N)c1c(Nc2ccc(Oc3cc(Cl)ccc3Cl)cc2)s[nH]c1=O (stereo not given) | 
5100 ng·h/mL | NC(=NC(CO)CO)c1c(Nc2ccc(Oc3cc(Cl)ccc3Cl)cc2)s[nH]c1=O | 
425 ng·h/mL | N=C(NCC1CCCO1)c1c(O)nsc1Nc1ccc(Oc2cc(Cl)ccc2Cl)cc1 (stereo not given) | 
87 ng·h/mL | N/C(=N\CCN1CCNC(=O)C1)c1c(O)nsc1Nc1ccc(Oc2cc(Cl)ccc2Cl)cc1 | 
14600 ng·h/mL | NC(=NCCO)c1c(Nc2ccc(Oc3cc(Cl)ccc3Cl)cc2)s[nH]c1=O | 
4250 ng·h/mL | CC(CO)N=C(N)c1c(Nc2ccc(S(=O)(=O)c3ccccc3)cc2)s[nH]c1=O (stereo not given) | AUC [2]: 8540 ng·h/mL
5710 ng·h/mL | CC(CO)NC(=N)c1c(O)nsc1Nc1ccc(Oc2cccc(C(F)(F)F)c2Cl)c(Cl)c1 (stereo not given) | 
60 ng·h/mL | CC(CO)/N=C(\N)c1c(O)nsc1Nc1ccc(C(=O)c2ccccc2)cc1 (stereo not given) | AUC [2]: 2900 ng·h/mL
220 ng·h/mL | CC(CO)/N=C(\N)c1c(O)nsc1Nc1ccc(Cc2ccccc2)cc1 (stereo not given) | AUC [2]: 7250 ng·h/mL

AUC [1] | SMILES | also measured
21900 ng·h/mL | CC(CO)N=C(N)c1c(Nc2ccc(Oc3cc(C(F)(F)F)ccc3Cl)cc2)s[nH]c1=O (stereo not given) | 
4500 ng·h/mL | CC(CO)N=C(N)c1c(Nc2ccc(Oc3cccc(C(F)(F)F)c3Cl)c(F)c2)s[nH]c1=O (stereo not given) | 
31300 ng·h/mL | CC(CO)N=C(N)c1c(Nc2ccc(Oc3cc(C(F)(F)F)ccc3F)cc2)s[nH]c1=O (stereo not given) | 
13000 ng·h/mL | CC(CO)N=C(N)c1c(Nc2ccc(Oc3cccc(C(F)(F)F)c3F)cc2)s[nH]c1=O (stereo not given) | 
20400 ng·h/mL | CC(CO)NC(=N)c1c(O)nsc1Nc1ccc(Oc2cccc(C(F)(F)F)c2Cl)cc1 (stereo not given) | 
1240 ng·h/mL | CC(CO)NC(=N)c1c(O)nsc1Nc1ccc(Nc2ccccc2)cc1 (stereo not given) | AUC [2]: 859 ng·h/mL; IC50 [3]: 448 nM; IC50 (Aurora kinase A): 265 nM; IC50 [4]: 389 nM; IC50 [5]: 266 nM; IC50 [6]: 1000 nM; IC50 [7]: 13 nM; EC50 [8]: 45 nM; IC50 [9]: 240 nM
2020 ng·h/mL | N=C(NCCC(O)CO)c1c(O)nsc1Nc1ccc(Oc2cc(Cl)ccc2Cl)cc1 (stereo not given) | 
28700 ng·h/mL | CC(CO)NC(=N)c1c(O)nsc1Nc1ccc(Oc2cccc(C(F)(F)F)c2)cc1 (stereo not given) | 
1980 ng·h/mL | CN1CCN(N=C(N)c2c(Nc3ccc(Oc4cc(Cl)ccc4Cl)cc3)s[nH]c2=O)CC1 | 
12500 ng·h/mL | NC(=NCC(O)CO)c1c(Nc2ccc(Oc3cc(Cl)ccc3Cl)cc2)s[nH]c1=O (stereo not given) | 
5690 ng·h/mL | CC(CO)N=C(N)c1c(Nc2ccc(Oc3ccc(F)cc3Cl)c(Cl)c2)s[nH]c1=O (stereo not given) | 
14600 ng·h/mL | CCC(CO)/N=C(\N)c1c(O)nsc1Nc1ccc(Oc2cc(Cl)ccc2Cl)cc1 (stereo not given) | 
12600 ng·h/mL | CC(CO)/N=C(\N)c1c(O)nsc1Nc1ccc(Oc2cccc(Cl)c2F)cc1 (stereo not given) | 
22200 ng·h/mL | CC(CO)/N=C(\N)c1c(O)nsc1Nc1ccc(Oc2cc(Cl)ccc2Cl)c(F)c1 (stereo not given) | 
2350 ng·h/mL | CC(CO)/N=C(\N)c1c(O)nsc1Nc1ccc(C(C)(C)c2ccccc2)cc1 (stereo not given) | AUC [2]: 9250 ng·h/mL
23900 ng·h/mL | CC(O)C/N=C(\N)c1c(O)nsc1Nc1ccc(Oc2cc(Cl)ccc2Cl)cc1 (stereo not given) | 
265 ng·h/mL | CC(CO)N=C(N)c1c(Nc2ccc(Sc3ccccc3)cc2)s[nH]c1=O (stereo not given) | AUC [2]: 6900 ng·h/mL
2420 ng·h/mL | CN1CCN(CCC/N=C(\N)c2c(O)nsc2Nc2ccc(Oc3cc(Cl)ccc3Cl)cc2)CC1 | 
14900 ng·h/mL | CC(CO)/N=C(\N)c1c(O)nsc1Nc1ccc(Oc2cc(F)cc(F)c2Cl)c(F)c1 (stereo not given) | 
900 ng·h/mL | CC(CO)N=C(N)c1c(Nc2ccc(Oc3cccc(N(C)C)c3)cc2)s[nH]c1=O (stereo not given) | 
12700 ng·h/mL | Cc1cc(Oc2ccc(F)cc2Cl)ccc1Nc1snc(O)c1/C(N)=N/C(C)CO (stereo not given) | 
15400 ng·h/mL | CC(CO)NC(=N)c1c(O)nsc1Nc1ccc(Oc2cc(F)cc(C(F)(F)F)c2)cc1 (stereo not given) | 
1140 ng·h/mL | CC(CO)/N=C(\N)c1c(O)nsc1Nc1ccc(Oc2ccccc2)cc1 (stereo not given) | AUC [2]: 8320 ng·h/mL; IC50 [3]: 795 nM; IC50 (Aurora kinase A): 260 nM; IC50 [4]: 455 nM; IC50 [5]: 26 nM; IC50 [6]: 2620 nM; IC50 [7]: 142 nM; EC50 [8]: 42 nM; IC50 [9]: 33 nM
